In PMC8362126, “Proteolysis Targeting Chimera (PROTAC) for Macrophage Migration Inhibitory Factor (MIF) Has Anti‐Proliferative Activity in Lung Cancer Cells” (Angewandte Chemie (International Ed. in English), 2021):
Entries after “also recorded” stand apart in the source; their conditions may differ.

Tests used:
A549 cell spheroids = assay: 3D tumor spheroid assay; type: cell-based, human; conditions: 5 μM, 12 days
Procedure: A 3D spheroid model was employed to investigate the effect of longer term MD13 treatment in a more complex model for tumor growth. The 3D spheroid model was established using A549 cancer cells by a method adapted from Feng et al.[48] The spheroids were grown over a 12‐day period in absence or presence of PROTAC MD13. Each spheroid was prepared from about 1000 A549 cells. After three‐day incubation, these spheroids were treated with 1, 2, or 5 μM of MD13 with 72 hours intervals over 12 days. Spheroid growth was monitored by measuring the diameter and this was compared to day 0 of the treatment. The tumor spheroids in MD13 treated groups were significant smaller compared to the control group (Figure 5 B and Figure S9). With continuous exposure to 1, 2, or 5 μM of MD13 for 12 days, the growth of the spheroid tumor volume was inhibited by 42 %, 53 %, and 81 % compared with control group, respectively. […]
Tumor spheroid assay. A549 cells (1000 cells/well) were seeded onto a 96-well round-bottomed ultra low attachment plate (Corning). After 2 days of incubation without disturbance, the spheroid was treated with indicated compound every 3 days. […]
(1 picture or pasted object on this page, not shown here) […]
inverted microscope (Nikon Eclipse Ti) connected with a NIS-elements software. The data were analyzed and plotted with Graphpad Prism8. […]
cells were seeded in an ultralow attachment 96-well round-bottomed plate (1000 cells/well) to generate tumor spheroids (a single spheroid per well). After initiation, the spheroids were treated with different compounds at the indicated concentrations every three days. DMSO was used as vehicle control. The day of the first treatment was indicated as day 0. (A) Representative images were obtained at the indicated intervals using an inverted microscope. Scale bar: 500 μm. (B) Analysis was carried out using NIS-Elements AR 3.1 software, and growth curves were obtained relative to the untreated spheroids (day 0) and plotted with GraphPad Prism 8. Values are shown as means ± SD (n = 3 spheroids/time point, **p < 0.01 vs control). […]

MIF = target: T1, MIF (Homo sapiens, UniProt P14174); assay: MIF degradation in A549 cells, western-blot; type: cell-based; set-up: endogenous in cells; host or cells: A549 (ATCC CCL-185); conditions: A549 cells
T1 sequence (P14174 2-115 limits assumed): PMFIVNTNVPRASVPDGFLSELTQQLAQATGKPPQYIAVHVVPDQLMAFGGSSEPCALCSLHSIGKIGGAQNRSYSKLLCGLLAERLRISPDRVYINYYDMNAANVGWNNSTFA
Procedure: The concentration dependence of PROTAC MD13‐mediated induction of MIF degradation in A549 cells was investigated using western‐blot. […] The MIF levels were normalized to the vehicle treated control and plotted to the respective MD13 concentrations. This provided a DC50 of around 100 nM and a maximal degradation of around 90–95 % at concentrations higher than 1 μM (Figure 3 B). The DC50 of MD13 measured by ELISA assay was about 200 nM (Figure 3 C), which is in line with the result from western‐blot. […]
Cell lysates were prepared using the protocol described above. About 10−40 μg of total protein was mixed with the 4× Laemmli Loading Dye (250 mM Tris, pH 6.8, 40% glycerol, 5% SDS, 0.005% bromophenol blue, 4% β-mercaptoethanol) and heated at 95−100 °C for 5 min and loaded onto a 12% Bis-Tris gel (Bio-Rad Laboratories, #4561084) and proteins were separated at 120V. Afterwards, proteins were transferred to polyvinylidene fluoride (PVDF) membranes, subsequently non-specific antibody binding was blocked with 5% nonfat dry milk (BIO-RAD, #1706404) in TBST buffer and incubated overnight at 4 °C with one of the following primary antibodies: anti-MIF (1:1000, ThermoFisher, #PA5-27343 ) or anti-β-actin (1:10000 Cell Signalling, #8457). The membranes were further incubated with a goat anti-rabbit HRP-conjugated secondary antibody (1:2000, DAKO, p0448) for 2 h at room temperature. Proteins were visualized with an ECLTM Prime Western Blotting System (GE Healthcare #RPN2232). The immunoblot was generated by ChemiDoc MP Imaging Systems (Bio-Rad) and analyzed by the ImageJ software. […]
As a control, the same experiment was repeated and analyzed by a western-blot assay (Figure 3B). The potency estimated from the Western blot assay was 1 µM (Figure 3C), which is consistent with the result from the ELISA assay. The “Hook effect” […]

ERK phosphorylation = ERK phosphorylation by western blot; type: cell-based, human; conditions: A549, 2 μM; 3 and 4 for 24 h, MD15 for 6, 24 or 48 h
Procedure: The effect of treatment with MIF‐directed PROTAC MD13 on MIF‐related signaling pathways was investigated by assessment of ERK phosphorylation using western blot analysis. […] Thus treatment with the MIF‐directed PROTAC MD13 inhibits ERK phosphorylation as a MIF‐related signaling event. […]
ERK signaling pathway study. A549 cells (2x10^5 cells per well) were seeded into each well of a 6-well plate with 2 mL RPMI-1640 medium containing 10% FBS (Costar Europe, Badhoevedorp, The Netherlands), and 1% penicillin/streptomycin solution (Corning). After overnight culturing, the cells were treated with MD13, MD15, or DMSO for the time indicated.
After that, cells were lysed by RIPA buffer containing 1× PhosSTOP and protease inhibitor (PI) cocktail (Roche, Mannheim, Germany). The BCA Protein Assay Kit (Pierce, Rockford IL, USA) was used to determine the protein concentration. 30 µg protein was separated by a pre-cast 10% NuPAGE Bis-Tris gel (Invitrogen, USA) and then transferred to a polyvinylidene difluoride (PVDF) membrane. After blocking with 5% of skimmed milk for 1 hour at room temperature and incubation with the appropriate primary antibody (pERK, #9101, Cell Signaling, 1:1000; GAPDH, #97166, Cell Signaling, 1:10000) overnight at 4 °C, the membrane was treated with an HRP-conjugated secondary goat anti-rabbit antibody (#P0448, Dako, 1:2000) or rabbit anti-mouse antibody (#P0260, Dako, 1:2000) at room temperature for 1 hour.
The protein bands were visualized with enhanced chemiluminescence (ECL) solution (GE Healthcare). The figures were quantified with imageJ software based on grayscale. […]

A549 cells = assay: CyQUANT cell proliferation assay; type: cell-based, human; conditions: concentrations up to 20 μM, 72 hours
Procedure: S8. Cell growth, cell cycle and pERK signaling study
Cell proliferation was measured with the CyQUANT® Direct Cell Proliferation Assay Kit (Thermo Fisher, #C35011). A549 cells were cultured in 96-well plates at a density of 1,000 cells/well and treated with different concentrations of MIF PROTAC (0.02-20 μM) for 72 h.
Cells were incubated with detection reagent (100 μL) for 60 min at 37 °C with 5% CO2. The fluorescence of each well was read at 485/535nm by plate reader (BioTek).
Figure S8. Cells were seeded with a density of 1000 cells per well in a 96-well plate. After overnight incubation, the cells were treated with various concentration of MD13 for 72 hours.
The resulting cells were quantified by CyQUANT® cell proliferation assays and compared with the vehicle (DMSO) control (n=3). […]
(also on this page, place not known: (0.02 -20 CO 2. (20 µM) 4 (20 µM) µM 20 µM 0.01 µM 0.08 µM 0.74 µM 6.7 µM 20 µM 0 50 100 Cell (%) H441 n.s. * * ** *** * n.s. MD15 96 -well MD13 proliferation control 96 -well round - 2 3) […]
(1 picture or pasted object on this page, not shown here)

Question: `Nc1cccc2c1C(=O)N(C1CCC(=O)NC1=O)C2=O` (centres unmarked) [compound 4, pomalidomide] was tested. Which “influence on spheroid tumor growth” value (A549 cell spheroids) did it give?
Answer: no significant influence

Question: And the “rescue of MD9 mediated MIF degradation” value (MIF; 2 hours pretreatment (1 100 µM, 3 50 µM, 4 50 µM, Bortezomib), then 10 µM MD9 12 h)?
Answer: partial to complete rescue; also recorded: rescued

Question: What about the “rescue of MD13 mediated MIF degradation” value (MIF; co-treatment (Bortezomib) or 1 hour pretreatment (3, 4) with MD13) of the same molecule?
Answer: rescued MIF from degradation; also recorded: able to abolish the MD13 triggered degradation

Question: What about the “effect on pERK levels” value (ERK phosphorylation) of the same molecule?
Answer: no significant decrease

Question: And the “effect on cell proliferation” value (A549 cells)?
Answer: no effect; also recorded: no or little effect
